Source: the NIST ThermoML archive (doi:10.1016/j.fluid.2019.112241)
Where “and” joins values, the source holds several entries; their conditions need not be identical. Equal values may be shown once.

Conditions: Liquid, Transpiration method

CCCCN(CCCC)C(C)=O [N,N-dibutylacetamide]
Conditions	vapor or sublimation pressure
291.8 K	0.0013 kPa
298.8 K	0.00247 kPa
300.9 K	0.00292 kPa
301.8 K	0.00324 kPa
303.9 K	0.00402 kPa
306.6 K	0.00505 kPa
306.7 K	0.00514 kPa
308.8 K	0.00635 kPa
312.5 K	0.00844 kPa
315.7 K	0.0107 kPa
317.5 K	0.01304 kPa
320.4 K	0.01631 kPa
320.7 K	0.01642 kPa
320.8 K	0.01653 kPa
322.6 K	0.01907 kPa
323.6 K	0.02074 kPa
325.6 K	0.02381 kPa
327.2 K	0.02708 kPa
327.6 K	0.0289 kPa
330.6 K	0.03472 kPa and 0.03551 kPa
333.3 K	0.04451 kPa
334.8 K	0.04701 kPa
335.7 K	0.05254 kPa
337.5 K	0.05938 kPa
340.7 K	0.0733 kPa
343.6 K	0.09061 kPa

CCN(CC)C(C)=O [N,N-diethylacetamide]
Conditions	vapor or sublimation pressure
293.2 K	0.05427 kPa
295.7 K	0.06498 kPa
298.1 K	0.07907 kPa
300.7 K	0.09611 kPa
303.3 K	0.1134 kPa
308.2 K	0.1595 kPa and 0.1564 kPa
310.6 K	0.1826 kPa
313.1 K	0.218 kPa
313.2 K	0.22 kPa
318.2 K	0.3145 kPa and 0.3097 kPa
323.1 K	0.4179 kPa
323.3 K	0.4212 kPa
325.7 K	0.4988 kPa
328.2 K	0.5921 kPa and 0.5695 kPa
330.7 K	0.6838 kPa
333.1 K	0.8078 kPa
333.2 K	0.771 kPa
335.7 K	0.882 kPa
338.3 K	1.032 kPa

CCCCCCN(CCCCCC)C(C)=O [N,N-dihexylacetamide]
Conditions	vapor or sublimation pressure [kPa]
319.4 K	0.0004
322.4 K	0.00053
325.5 K	0.00071
328.4 K	0.00091
329.2 K	0.00098
331.5 K	0.00123
332.4 K	0.0013
332.5 K	0.00136
335.5 K	0.0017
338.5 K	0.00228
342.2 K	0.00302
346.4 K	0.0043
349.5 K	0.0056
350.4 K	0.00612
353.3 K	0.00738
353.4 K	0.00736
356.3 K	0.00918
359.2 K	0.01148
360.3 K	0.01247
362.3 K	0.01466
364.2 K	0.01684

CC(=O)N(C)C [N,N-dimethylethanamide]
Conditions	vapor or sublimation pressure
273.3 K	0.03543 kPa and 0.03607 kPa and 0.035 kPa
274.7 K	0.03924 kPa
275.9 K	0.04222 kPa
276.5 K	0.04528 kPa
276.9 K	0.04668 kPa
277.3 K	0.05063 kPa
278.2 K	0.05175 kPa
278.6 K	0.05303 kPa
279.7 K	0.058 kPa
281.3 K	0.06713 kPa and 0.07108 kPa
281.4 K	0.06481 kPa
281.9 K	0.06864 kPa
282.4 K	0.07295 kPa
283 K	0.07741 kPa
285.3 K	0.0977 kPa
285.8 K	0.09266 kPa
286.4 K	0.09668 kPa
287.3 K	0.1021 kPa
288.2 K	0.1121 kPa
288.3 K	0.1147 kPa
289.3 K	0.1307 kPa
290.2 K	0.1314 kPa
290.8 K	0.1301 kPa
291.2 K	0.1351 kPa
291.3 K	0.1465 kPa
291.8 K	0.1543 kPa
293.2 K	0.1571 kPa
293.3 K	0.1763 kPa
294.2 K	0.1744 kPa
296.2 K	0.2041 kPa
296.3 K	0.2 kPa
297.2 K	0.2169 kPa
297.3 K	0.2291 kPa
298.1 K	0.2275 kPa
298.2 K	0.2301 kPa
300.2 K	0.2612 kPa
300.7 K	0.2666 kPa and 0.2829 kPa
301.3 K	0.2983 kPa
302.2 K	0.3174 kPa
302.7 K	0.3279 kPa
303 K	0.3058 kPa
303.2 K	0.3248 kPa
304.7 K	0.3758 kPa
305.2 K	0.3538 kPa and 0.3944 kPa
305.6 K	0.3795 kPa
308 K	0.4422 kPa
308.1 K	0.4305 kPa
310.6 K	0.5041 kPa
313.1 K	0.6025 kPa
313.2 K	0.6035 kPa
315.7 K	0.711 kPa
316.4 K	0.7274 kPa
318.2 K	0.8426 kPa
320.8 K	0.9968 kPa
323.2 K	1.115 kPa
323.3 K	1.128 kPa
325.8 K	1.285 kPa
328.3 K	1.481 kPa
